± gives the expanded uncertainty stated by the source.
Experiments:
[1] = Crystal; DTA
[2] = Molar enthalpy of transition or fusion; details: Crystal; DSC

| Structure (SMILES) | Normal melting temperature [1] | Molar enthalpy of transition or fusion [2] |
| --- | --- | --- |
| CC(C)Cc1ccc(C(C)C(=O)O)cc1 (stereo not given) [ibuprofen] | 74.6 ± 0.39 °C |  |
| NNC(=O)c1ccncc1 [isonicotinic acid hydrazide] | 172.69 ± 1.1 °C |  |
| CC(=O)N[C@@H](CS)C(=O)O [N-acetyl-L-cysteine] |  | 7.67 ± 0.167 kcal/mol |
| CC1=CC(=O)C(C(C)C)=CC1=O [2-isopropyl-5-methylcyclohexa-2,5-diene-1,4-dione] | 43.6 ± 0.5 °C |  |
| O=c1cc(O)c2ccccc2o1 [4-hydroxycoumarin] | 215.2 ± 0.39 °C |  |

Reference: the NIST ThermoML archive (doi:10.1016/j.fluid.2015.03.053)
